From patent publication US8791131B2, “Imidazo[1,5]naphthyridine compounds, their pharmaceutical use and compositions” (Pfizer Inc., priority 2008, dated 2014) come the findings set out here.

Read-outs that look alike come from different tables or passages of the source.

Assay [1] deals with PI3-K (phosphorylation of AKT at serine 473) in BT20 cells. Kind of assay: PI3-Kα cellular assay (phospho-AKT Ser473 ELISA in BT20 cells).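 Further: lysates read by ELISA with TMB colour at 450 nm, cells given 0.5% DMSO vehicle serve as positive control and cell-free wells as negative control, duplicate wells per concentration.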 The settings on record: Homo sapiens, BT-20, 1 h.
In the next assay the target is PI3-Kα (Mus musculus (Mouse), UniProt P42337). The experiment in a line: PI3-Kα biochemical assay (in vitro kinase assay, fluorescence polarization).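 Further: Insect-cell-expressed mouse p110/p85 complex converting PI(4,5)P2, product PI(3,4,5)P3 detected by displacing TAMRA-tagged PI(3,4,5)P3 from Grip1 PH domain, lower polarization means more product, room temperature.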 Conditions: read-out: PI3Ka Ki.
A further assay concerns the target mTOR (Homo sapiens (Human), UniProt P42345). Kind of assay: biochemical.
[2] abbreviates: read-out: S473 pAKT 10% FBS IC50 (μM).
Setting [3] is: read-out: S473 pAKT 0.5% FBS IC50 (μM).

Chain of mTOR (P42345 2156-2469): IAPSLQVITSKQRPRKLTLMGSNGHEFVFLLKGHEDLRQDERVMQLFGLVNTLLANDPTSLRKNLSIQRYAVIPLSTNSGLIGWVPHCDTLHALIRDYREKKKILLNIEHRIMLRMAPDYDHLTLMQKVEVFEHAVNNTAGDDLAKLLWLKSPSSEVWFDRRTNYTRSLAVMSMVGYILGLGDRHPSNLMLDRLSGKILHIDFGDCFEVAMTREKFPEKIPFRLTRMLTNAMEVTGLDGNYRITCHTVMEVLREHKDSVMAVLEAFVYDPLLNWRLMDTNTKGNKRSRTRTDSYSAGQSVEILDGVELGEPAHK
Chain of PI3-Kα (P42337 whole entry, the tested form may be a part): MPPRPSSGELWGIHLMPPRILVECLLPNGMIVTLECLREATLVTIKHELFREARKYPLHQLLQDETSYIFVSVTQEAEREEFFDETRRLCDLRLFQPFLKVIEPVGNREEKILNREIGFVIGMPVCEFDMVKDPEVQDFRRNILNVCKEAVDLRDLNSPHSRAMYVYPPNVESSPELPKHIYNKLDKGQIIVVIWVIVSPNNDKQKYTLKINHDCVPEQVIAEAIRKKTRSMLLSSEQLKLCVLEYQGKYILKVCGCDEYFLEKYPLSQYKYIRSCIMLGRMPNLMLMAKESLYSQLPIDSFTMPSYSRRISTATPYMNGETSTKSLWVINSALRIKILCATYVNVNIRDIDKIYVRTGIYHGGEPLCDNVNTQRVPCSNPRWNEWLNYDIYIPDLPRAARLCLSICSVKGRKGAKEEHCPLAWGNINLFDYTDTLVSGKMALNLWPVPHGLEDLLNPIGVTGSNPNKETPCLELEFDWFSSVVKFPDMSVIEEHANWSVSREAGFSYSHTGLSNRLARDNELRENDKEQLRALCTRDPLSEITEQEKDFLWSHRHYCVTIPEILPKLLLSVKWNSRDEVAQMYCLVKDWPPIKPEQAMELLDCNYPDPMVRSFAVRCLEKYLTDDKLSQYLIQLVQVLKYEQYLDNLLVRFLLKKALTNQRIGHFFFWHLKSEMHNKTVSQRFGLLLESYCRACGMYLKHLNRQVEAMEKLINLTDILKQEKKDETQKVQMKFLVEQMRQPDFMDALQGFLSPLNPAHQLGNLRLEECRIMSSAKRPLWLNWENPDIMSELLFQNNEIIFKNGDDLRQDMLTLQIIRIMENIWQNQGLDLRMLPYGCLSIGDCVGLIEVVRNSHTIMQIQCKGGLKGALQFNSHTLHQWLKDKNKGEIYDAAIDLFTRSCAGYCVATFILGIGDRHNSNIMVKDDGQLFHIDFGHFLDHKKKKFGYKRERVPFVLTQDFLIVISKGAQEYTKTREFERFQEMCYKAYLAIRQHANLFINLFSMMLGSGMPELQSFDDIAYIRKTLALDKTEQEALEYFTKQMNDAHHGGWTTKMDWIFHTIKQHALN
Chain of PI3-Kα (P26450 whole entry partner, the tested form may be a part): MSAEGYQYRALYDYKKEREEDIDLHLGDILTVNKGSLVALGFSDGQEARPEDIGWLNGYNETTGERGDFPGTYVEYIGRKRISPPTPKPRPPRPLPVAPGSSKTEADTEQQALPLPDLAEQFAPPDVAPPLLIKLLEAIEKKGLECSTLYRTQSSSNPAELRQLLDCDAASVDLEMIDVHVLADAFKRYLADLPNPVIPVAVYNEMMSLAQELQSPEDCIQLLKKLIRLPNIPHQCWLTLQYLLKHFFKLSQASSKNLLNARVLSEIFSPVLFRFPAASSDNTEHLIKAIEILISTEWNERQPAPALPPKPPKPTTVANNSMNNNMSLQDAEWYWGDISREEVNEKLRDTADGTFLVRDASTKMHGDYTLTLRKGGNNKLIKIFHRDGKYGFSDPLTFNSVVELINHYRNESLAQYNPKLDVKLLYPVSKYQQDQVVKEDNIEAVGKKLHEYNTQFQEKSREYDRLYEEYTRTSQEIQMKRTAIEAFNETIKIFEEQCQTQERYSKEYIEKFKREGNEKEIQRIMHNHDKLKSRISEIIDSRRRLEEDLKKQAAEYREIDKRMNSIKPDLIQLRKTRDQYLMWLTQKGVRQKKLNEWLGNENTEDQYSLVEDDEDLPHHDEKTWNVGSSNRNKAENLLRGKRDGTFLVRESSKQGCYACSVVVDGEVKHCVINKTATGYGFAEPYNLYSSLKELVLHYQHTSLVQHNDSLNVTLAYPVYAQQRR

`COc1ncc(-c2ccc3ncc4c(c3n2)n(C2CCN(C(=O)CO)CC2)c(=O)n4C)cn1` [Compound 189, 1-(1-glycoloylpiperidin-4-yl)-8-(2-methoxypyrimidin-5-yl)-3-methyl-1,3-dihydro-2H-imidazo[4,5-c][1,5]naphthyridin-2-one]: the IC50 (in general, the point on the concentration scale where inhibition reaches its midpoint) in assay [1] (setting [2]) worked out at 0.0272 µM. In addition, the Ki (in general, the dissociation constant of the complex between target and ligand, obtained from inhibition or displacement) at PI3-Kα was 1.78 nM; at mTOR it was 1.95 nM.
Take `O=C(OCc1ccccc1)N1CCC(n2c(=O)[nH]c3cnc4ccc(-c5cnc6ccccc6c5)nc4c32)CC1` [Compound 115, benzyl4-(2-oxo-8-quinolin-3-yl-2,3-dihydro-1H-imidazo[4,5-c][1,5]naphthyridin-1-yl)piperidine-1-carboxylate]: the IC50 in assay [1] (setting [3]) was determined as 0.0322 µM. Further, the Ki came out at 7.77 nM at PI3-Kα and 21.5 nM at mTOR.
In the case of `CC(C)(C#N)c1ccc(-n2c(=O)[nH]c3cnc4ccc(-c5cnc6ccccc6c5)nc4c32)cc1` [Compound 101, 2-methyl-2-[4-(2-oxo-8-quinolin-3-yl-2,3-dihydro-1H-imidazo[4,5-c]-1,5-naphthyridin-1-yl)phenyl]propanenitrile], the IC50 in assay [1] (setting [3]) was determined as 0.00647 µM. Also, the Ki came to 4.4 nM on PI3-Kα and 3.63 nM on mTOR.
With `Cn1c(=O)n([C@H]2CC[C@H](N)CC2)c2c3nc(-c4cnc5ccccc5c4)ccc3ncc21` [Compound 194, 1-(trans-4-aminocyclohexyl)-3-methyl-8-quinolin-3-yl-1,3-dihydro-2H-imidazo[4,5-c][1,5]naphthyridin-2-one], the IC50 in assay [1] (setting [3]) amounted to 0.0464 µM. In addition, the Ki stood at 2.3 nM on PI3-Kα and 7.91 nM on mTOR.
In the case of `COc1ncc(-c2ccc3ncc4c(c3n2)n(C2CCN(CC(N)=O)CC2)c(=O)n4C)cn1` [Compound 190, 2-{4-[8-(2-methoxypyrimidin-5-yl)-3-methyl-2-oxo-2,3-dihydro-1H-imidazo[4,5-c][1,5]naphthyridin-1-yl]piperidin-1-yl}acetamide], in assay [1] (setting [2]), the IC50 was 0.0903 µM. The results for the Ki on PI3-Kα and on mTOR were 4.96 nM and 9.76 nM, respectively.
The like results for `Cc1ccc(-c2ccc3ncc4c(c3n2)n(C2CCN(C(N)=O)CC2)c(=O)n4C)cn1` [Compound 167, 4-[3-methyl-8-(6-methylpyridin-3-yl)-2-oxo-2,3-dihydro-1H-imidazo[4,5-c][1,5]naphthyridin-1-yl]piperidine-1-carboxamide] were, in that order, 0.112 µM, 1.93 nM and 1.28 nM.
